Data: paper PMC3419725, “A Small Molecule Agonist of EphA2 Receptor Tyrosine Kinase Inhibits Tumor Cell Migration In Vitro and Prostate Cancer Metastasis In Vivo” (PLoS ONE, 2012)

Biological target: T1, EphA2 (Homo sapiens, UniProt P29317)
T1 construct: Methods: biotinylated extracellular domain (ECD)
Assay: SPR; also receptor activation in cells
Type: binding

T1 sequence (P29317 28-206 limits assumed): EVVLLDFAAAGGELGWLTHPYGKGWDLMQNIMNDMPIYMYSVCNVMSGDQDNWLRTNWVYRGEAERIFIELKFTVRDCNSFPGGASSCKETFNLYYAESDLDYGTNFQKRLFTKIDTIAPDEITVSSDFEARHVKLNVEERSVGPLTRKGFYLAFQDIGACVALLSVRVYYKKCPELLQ

COc1cc2nc(N3CCN(C(=O)C4COc5ccccc5O4)CC3)nc(N)c2cc1OC (stereo not shown) [compound 11, doxazosin]
Kd: 47.6 µM
